How the values were obtained:
[1] = vaping study with 10 subjects rating throat feel and head feel dynamics; format: in vivo, human
Text: In rating the head feel dynamics and throat feel of the different compositions, the subjects used the following criteria: […]

α4β2 nAChRs = α4β2 nAChRs (Homo sapiens, UniProt P17787+P43681); format: cell-based
α7 nAChRs = α7 nAChRs (Homo sapiens, UniProt P36544); format: cell-based
Chain of α7 nAChRs (P36544 23-502): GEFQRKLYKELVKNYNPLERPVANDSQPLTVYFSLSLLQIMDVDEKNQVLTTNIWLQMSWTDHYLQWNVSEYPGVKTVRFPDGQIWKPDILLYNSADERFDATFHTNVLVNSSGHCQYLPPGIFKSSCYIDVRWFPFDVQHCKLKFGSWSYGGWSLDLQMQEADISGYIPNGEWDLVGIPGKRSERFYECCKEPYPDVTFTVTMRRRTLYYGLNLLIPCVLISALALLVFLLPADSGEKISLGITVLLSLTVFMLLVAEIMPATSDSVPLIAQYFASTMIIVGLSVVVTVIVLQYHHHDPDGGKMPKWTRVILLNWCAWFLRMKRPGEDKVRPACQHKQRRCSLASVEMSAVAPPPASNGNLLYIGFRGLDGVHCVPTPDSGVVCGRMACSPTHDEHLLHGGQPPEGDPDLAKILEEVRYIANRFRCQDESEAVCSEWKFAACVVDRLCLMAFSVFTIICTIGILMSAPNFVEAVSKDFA

Chain of α4β2 nAChRs (P43681 29-627 limits assumed): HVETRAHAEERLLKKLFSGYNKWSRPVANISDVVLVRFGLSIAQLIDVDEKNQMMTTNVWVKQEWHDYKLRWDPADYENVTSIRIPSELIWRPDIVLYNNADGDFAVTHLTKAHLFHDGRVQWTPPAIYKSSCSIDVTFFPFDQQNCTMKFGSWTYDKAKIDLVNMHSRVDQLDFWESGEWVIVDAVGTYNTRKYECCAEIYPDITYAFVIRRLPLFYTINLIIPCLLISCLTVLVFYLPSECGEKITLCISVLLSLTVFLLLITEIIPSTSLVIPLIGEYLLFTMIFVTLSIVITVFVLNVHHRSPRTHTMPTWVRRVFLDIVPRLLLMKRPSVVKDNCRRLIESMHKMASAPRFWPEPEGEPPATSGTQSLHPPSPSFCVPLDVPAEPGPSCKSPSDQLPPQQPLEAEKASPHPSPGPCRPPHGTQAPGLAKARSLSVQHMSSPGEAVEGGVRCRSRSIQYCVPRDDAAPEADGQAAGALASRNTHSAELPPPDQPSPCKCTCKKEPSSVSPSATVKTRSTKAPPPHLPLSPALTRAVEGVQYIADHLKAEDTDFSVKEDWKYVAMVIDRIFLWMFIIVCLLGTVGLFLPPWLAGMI
Chain of α4β2 nAChRs (P17787 26-502): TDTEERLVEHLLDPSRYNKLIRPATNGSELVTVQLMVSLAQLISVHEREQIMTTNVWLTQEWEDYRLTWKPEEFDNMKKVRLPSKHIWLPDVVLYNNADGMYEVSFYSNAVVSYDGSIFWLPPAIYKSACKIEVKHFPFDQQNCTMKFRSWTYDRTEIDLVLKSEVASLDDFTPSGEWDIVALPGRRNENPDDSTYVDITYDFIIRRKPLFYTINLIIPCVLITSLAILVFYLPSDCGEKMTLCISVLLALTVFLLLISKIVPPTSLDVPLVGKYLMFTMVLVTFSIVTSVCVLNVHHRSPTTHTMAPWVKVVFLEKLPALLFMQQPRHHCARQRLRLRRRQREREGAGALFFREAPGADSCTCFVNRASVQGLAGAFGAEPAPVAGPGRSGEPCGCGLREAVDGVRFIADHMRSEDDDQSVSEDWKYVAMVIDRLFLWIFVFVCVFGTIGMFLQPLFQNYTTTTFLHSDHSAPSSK

Structure (SMILES) | Head Feel Dynamics compared with tobacco-derived counterpart ([1]; 0.3% loading level) | Head Feel Dynamics compared with tobacco-derived counterpart ([1]; 0.6% loading level) | agonist character in words (α4β2 nAChRs) | agonist character in words (α7 nAChRs)
CN1CCCC1c1cccnc1 (racemic) [Synthetic RS racemic nicotine, RS-Nicotine] | slightly less effect | slightly less effect | – | –
CN1CCC[C@@H]1c1cccnc1 [Synthetic R nicotine, R nicotine] | – | – | partial agonist | full, weak agonist
CN1CCC[C@H]1c1cccnc1 [Synthetic S nicotine, S-nicotine] | same (within experimental error) | same (within experimental error) | – | –

Reference: patent US20170112182A1 (Next Generation Labs, LLC, priority 2015, published 2017)
